Data taken from patent publication US11584732B2, “Methods of treatment using 4-(3-cyanophenyl)-6-pyridinylpyrimidine mGlu5 modulators” (Heptares Therapeutics Limited, priority 2013, dated 2023).

Tested on: CD-1 mice
Test: In vivo efficacy test - marble burying
Parameters: species or system mouse
Settings: male CD-1 mice, po, 30 min prior to test; at a dose of 10 and 30 mg/kg versus vehicle group

SMILES: N#Cc1cc(Cl)cc(-c2cc(-c3ccc(F)cn3)ncn2)c1 [Example 17, 3-chloro-5-[6-(5-fluoropyridin-2-yl)pyrimidin-4-yl]benzonitrile]
- number of marbles buried: statistically significant decrease
